Experimental data published in the supplement of paper PMC11424490.
Structures can show the parent of a compound that is named as a salt.

Experiments:
[1] = test system: NCI-H2122; experiment: fitted bottom plateau of viability curve, % of DMSO control; higher = less maximal inhibition; extreme values may be limits of the assay
Description: (§1)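 CellTiter-Glo proliferation assay in KRAS G12C mutant NCI-H2122 (72 h), SW837 (144 h) and NCI-H358 cells in 384-well plates. Monotherapy dose response was fitted with a four-parameter curve after normalisation to DMSO controls (% of control, PoC). IC50 is the relative IC50, averaged over replicates. Bottom is the fitted lower plateau in %PoC; Max.Conc. is the top dose tested.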

[2] = test system: SW837; experiment: as above
Description: as §1

| SMILES | fitted bottom plateau of viability curve [1] | fitted bottom plateau of viability curve [2] |
| --- | --- | --- |
| N[C@H]1CC[C@H](N[C@@H]2C[C@H]2c2ccccc2)CC1 [ORY-1001] (top concentration tested 49.848 nM) | 68.1% | 90.5% |
| CCCS(=O)(=O)Nc1ccc(F)c(C(=O)c2c[nH]c3ncc(Cl)cc23)c1F [PLX4720] (top concentration tested 10000 nM) | 73.6% | 101% |
| Cc1ccc(Nc2nccc(N(C)c3ccc4c(C)n(C)nc4c3)n2)cc1S(N)(=O)=O [Pazopanib] (top concentration tested 10000 nM) | 80.9% | 91.9% |
| CC(C)(C)c1cc(NC(=O)Nc2ccc(-c3cn4c(n3)sc3cc(OCCN5CCOCC5)ccc34)cc2)no1 [Quizartinib] (top concentration tested 1000.1 nM) | 79.3% | 94.1% |
| CO[C@H]1C[C@@H]2CC[C@@H](C)[C@@](O)(O2)C(=O)C(=O)N2CCCC[C@H]2C(=O)O[C@H]([C@H](C)C[C@@H]2CC[C@@H](O)[C@H](OC)C2)CC(=O)[C@H](C)/C=C(\C)[C@@H](O)[C@@H](OC)C(=O)[C@H](C)C[C@H](C)/C=C/C=C/C=C/1C [Rapamycin] (top concentration tested 1000 nM) | 64.1% | 88.4% |
| CNC(=O)c1cc(Oc2ccc(NC(=O)Nc3ccc(Cl)c(C(F)(F)F)c3)c(F)c2)ccn1 [Regorafenib] (top concentration tested 999.95 nM) | 82.1% | 92.7% |
| N#CC[C@H](C1CCCC1)n1cc(-c2ncnc3[nH]ccc23)cn1 [Ruxolitinib] (top concentration tested 9999.9 nM) | 73.3% | 88.3% |
| CNC(=O)c1cc(Oc2ccc(NC(=O)Nc3ccc(Cl)c(C(F)(F)F)c3)cc2)ccn1 [Sorafenib] (top concentration tested 999.95 nM) | 84.3% | 92.6% |
| Cn1nnc2c(C(N)=O)ncn2c1=O [Temozolomide] (top concentration tested 50000 nM) | 83.2% | 93.2% |
| C[C@@H]1CCN(C(=O)CC#N)C[C@@H]1N(C)c1ncnc2[nH]ccc12 [Tofacitinib citrate] (top concentration tested 10000 nM) | 63% | 99% |
| CC1=C(/C=C/C(C)=C/C=C/C(C)=C/C(=O)O)C(C)(C)CCC1 [Tretinoin] (top concentration tested 10000 nM) | 78.8% | 105% |
| CC(C)Nc1cc(-c2c[nH]c(C(=O)N[C@H](CO)c3cccc(Cl)c3)c2)c(Cl)cn1 [Ulixertinib] (top concentration tested 99.921 nM) | 64.5% | 97.1% |
| CCCC(CCC)C(=O)O [Valproic acid] (top concentration tested 10000 nM) | 72.1% | 92.8% |
| C[C@]1(c2nc3c(C(N)=O)cccc3[nH]2)CCCN1 [Veliparib] (top concentration tested 10000 nM) | 93.6% | 102% |
| CS(=O)(=O)c1ccc(C(=O)Nc2ccc(Cl)c(-c3ccccn3)c2)c(Cl)c1 [Vismodegib] (top concentration tested 10000 nM) | 91.1% | 103% |
